Data on ten molecules can be found in PubChem BioAssay (NCI).

Test systems include 786-0 renal; CAKI-1 renal; K-562 leukemia; M14 melanoma; MOLT-4 leukemia; NCI-H23 lung; SF-295 CNS; SN12C renal; SNB-19 CNS; U251 CNS.
Holding throughout (assay): NCI anticancer screen, dose series, 48 h

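Tested at 5 concentrations; 48 h exposure; 96-well plates; endpoints linearly interpolated, else capped at highest concentration. GI50 is the concentration that inhibits growth by half. TGI denotes the concentration required for complete inhibition of growth.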

In the case of `O=c1nc(-c2ccccc2)cc(-c2ccccc2O)[nH]1`, the TGI with 786-0 renal, in the experiment with CAKI-1 renal, with K-562 leukemia, in the experiment on M14 melanoma, in the experiment with MOLT-4 leukemia and in the experiment on NCI-H23 lung was more than 100 µM each time. Besides, the TGI in the experiment with SF-295 CNS, in the experiment on SN12C renal, with SNB-19 CNS and with U251 CNS was more than 100 µM throughout.
`Cc1ccc(Nc2nnc(-c3ccc4c(c3)OCO4)o2)c(C)c1`: the TGI in the experiment with 786-0 renal, in the experiment with CAKI-1 renal, in the experiment with K-562 leukemia, in the experiment on M14 melanoma, in the experiment on MOLT-4 leukemia and in the experiment on NCI-H23 lung was more than 100 µM each time. Also, the TGI in the experiment with SF-295 CNS, with SN12C renal, in the experiment on SNB-19 CNS and with U251 CNS was more than 100 µM each time.
With `CC/C=C/C/C=C/C/C=C/C/C=C/C/C=C/C/C=C/CCC(=O)Nc1ccn([C@@H]2O[C@H](CO)[C@@H](O)C2(F)F)c(=O)n1`, the GI50 in the experiment on 786-0 renal is 0.0141 µM; in the experiment on CAKI-1 renal, 0.0341 µM; in the experiment on K-562 leukemia, 0.16 µM; with M14 melanoma, 0.0303 µM; with MOLT-4 leukemia, 0.0802 µM; with NCI-H23 lung it was 0.019 µM. Moreover, the GI50 is 0.11 µM with SF-295 CNS, 0.126 µM in the experiment on SN12C renal, 0.0278 µM in the experiment with SNB-19 CNS and 0.0331 µM in the experiment with U251 CNS. The TGI with 786-0 renal came out at 25.5 µM; in the experiment with CAKI-1 renal, 14.8 µM; with K-562 leukemia it was 33.4 µM; in the experiment with M14 melanoma it was 0.212 µM; with MOLT-4 leukemia, 3.55 µM; in the experiment with NCI-H23 lung, 9.3 µM. Besides, the TGI amounted to 19.8 µM with SF-295 CNS, 8.78 µM with SN12C renal, 26.6 µM with SNB-19 CNS and 18.2 µM with U251 CNS.
As to `Oc1ccc(Br)cc1C=Nc1ccc(N=Cc2cc(Br)ccc2O)cc1`, the TGI in the experiment on 786-0 renal, in the experiment on CAKI-1 renal, in the experiment with K-562 leukemia, in the experiment on M14 melanoma, with MOLT-4 leukemia and in the experiment on NCI-H23 lung was more than 100 µM throughout. Also, the TGI with SF-295 CNS, in the experiment on SN12C renal, in the experiment with SNB-19 CNS and with U251 CNS was more than 100 µM throughout.
On to `O=C(N/N=C/c1c(Cl)cccc1Cl)c1ccc(C(F)(F)F)nc1Nc1cccc(C(F)(F)F)c1`, for which the GI50 with 786-0 renal was 0.856 µM; with CAKI-1 renal, 1.03 µM; with K-562 leukemia it was 0.491 µM; in the experiment on M14 melanoma it was 1.6 µM; with MOLT-4 leukemia, 0.394 µM; with NCI-H23 lung, 1.42 µM. The GI50 in the experiment on SF-295 CNS was 1.16 µM; in the experiment with SN12C renal it was 0.912 µM; with SNB-19 CNS, 1.55 µM; with U251 CNS, 0.588 µM. Moreover, the TGI was 3.25 µM in the experiment with 786-0 renal; 13.8 µM with CAKI-1 renal; more than 31.1 µM with M14 melanoma; 7.7 µM with MOLT-4 leukemia; more than 21.8 µM in the experiment on NCI-H23 lung; more than 29.2 µM in the experiment with SF-295 CNS. The figures for the TGI in the experiment with SN12C renal, with SNB-19 CNS and with U251 CNS were 20.8 µM, more than 100 µM and 12.8 µM, respectively.
Consider `COc1ccc(/C=C(/c2ccccc2)[N+](=O)[O-])cc1`, for which the GI50 was 1.58 µM with 786-0 renal; 1.55 µM with CAKI-1 renal; 0.393 µM in the experiment with K-562 leukemia; 1.42 µM in the experiment with M14 melanoma; 2.18 µM in the experiment with MOLT-4 leukemia; 1.74 µM in the experiment with NCI-H23 lung. The GI50 in the experiment with SF-295 CNS was 2.29 µM; in the experiment with SN12C renal it was 1.36 µM; in the experiment on SNB-19 CNS it was 1.65 µM; in the experiment with U251 CNS it was 1.61 µM. For the same molecule, the TGI is 2.96 µM in the experiment on 786-0 renal; 3.28 µM in the experiment on CAKI-1 renal; more than 100 µM in the experiment on K-562 leukemia; 2.85 µM in the experiment with M14 melanoma; 6.28 µM in the experiment on MOLT-4 leukemia; 3.63 µM with NCI-H23 lung. In addition, the TGI amounted to 5.22 µM with SF-295 CNS, 2.9 µM in the experiment on SN12C renal, 3.17 µM in the experiment on SNB-19 CNS and 3.21 µM with U251 CNS.
As to `CC1=C(C(=O)NNS(=O)(=O)c2ccc(C)cc2)CC(C(=O)NNS(=O)(=O)c2ccc(C)cc2)=C(C)N1`, the TGI in the experiment with 786-0 renal, with CAKI-1 renal, in the experiment with K-562 leukemia, in the experiment on M14 melanoma, in the experiment on MOLT-4 leukemia and with NCI-H23 lung was more than 100 µM throughout. Also, the TGI in the experiment with SF-295 CNS, in the experiment on SN12C renal, with SNB-19 CNS and in the experiment on U251 CNS was more than 100 µM each time.
For the molecule `COc1ccc2c(c1)C(C)Cc1c(ncnc1-n1cnc3cc(C)ccc31)N2C` (centres undefined), the GI50 with 786-0 renal is 0.0649 µM; with CAKI-1 renal, 0.0604 µM; in the experiment with K-562 leukemia, 0.0386 µM; with M14 melanoma it was 0.067 µM; in the experiment with MOLT-4 leukemia, 0.247 µM; with NCI-H23 lung, 0.4 µM. For the same molecule, the GI50 was 0.0317 µM in the experiment on SF-295 CNS, 0.38 µM with SN12C renal, 0.216 µM in the experiment with SNB-19 CNS and 0.148 µM with U251 CNS. Also, the TGI was found to be 15 µM with 786-0 renal; 12.6 µM in the experiment with CAKI-1 renal; 15.2 µM in the experiment with K-562 leukemia; 13.6 µM with M14 melanoma; 12.9 µM with MOLT-4 leukemia; 23.4 µM in the experiment with NCI-H23 lung. Moreover, the TGI in the experiment on SF-295 CNS was determined as 11 µM; in the experiment on SN12C renal it was 20.5 µM; in the experiment with SNB-19 CNS it was 20.4 µM; in the experiment with U251 CNS, 11.6 µM.
`Cc1ccc(S(=O)(=O)NC(=O)NC2=NC(C)(C)N(c3ccc(Cl)c(Cl)c3)C(N)=N2)cc1`: the TGI with 786-0 renal, in the experiment with CAKI-1 renal, in the experiment with K-562 leukemia, in the experiment on M14 melanoma, in the experiment with MOLT-4 leukemia and with NCI-H23 lung was more than 100 µM each time. Also, the TGI in the experiment on SF-295 CNS, in the experiment on SN12C renal, with SNB-19 CNS and in the experiment with U251 CNS was more than 100 µM in each case.
For the molecule `C=CCn1c2c(sc1=S)C(S)N=CN2` (centres undefined), the TGI in the experiment on 786-0 renal, in the experiment with CAKI-1 renal, in the experiment on K-562 leukemia, in the experiment with M14 melanoma, with MOLT-4 leukemia and in the experiment on NCI-H23 lung was more than 100 µM in each case. The TGI with SF-295 CNS, in the experiment with SN12C renal, in the experiment on SNB-19 CNS and in the experiment with U251 CNS was more than 100 µM in each case.
